Laboratory results taken from patent publication US10525139B2, “Folate-conjugated molecules for delivery of toxic small molecule inhibitors to cancer cells and methods of use” (priority 2014, dated 2020).
Entries after “also recorded” stand apart in the source; their conditions may differ.

Experiments:
T-ALL cell lines [1] = experiment: Uptake of fluorescent folate probes by flow cytometry in T-ALL cells; type: cell-based, human
Excerpt: To assess functional engagement of the folate receptor on T-ALL cells, we generated fluorescence-ragged folic acid probes. FL-TAMRA and FL-FITC, as tool compounds (FIG. 7, panel c). […] Taken together, these observations indicate that functional FR2 expression is increased in T-ALL compared to normal cells, further supporting a rationale for folate-mediated delivery in leukemia.
To explore the mechanism of binding and delivery of folate-conjugates in T-ALL, we performed competition and temperature sensitivity studies of the FL-FITC probe. The T-ALL cell Sine RPMI 8402 was engineered to overexpress either FR1 or FR2 and was then treated with increasing concentrations of FL-FITC. […] We next addressed whether folic acid could compete with the FL-FITC probe for uptake. T-ALL cells were grown in medium depleted of folic acid for 48 hours, treated with FL-FITC (1 or 10 μM), and assessed by flow cytometry. […]
In order to validate the delivery of the Thap-OH, LCMS analysis of the cell lysate and the media was used to detect the presence of both Folate-Thap (FT) and Thap-OH. […] Both Folate-FITC, suitable for flow cytometry studies, and Folate-TMARA, suitable for high-throughput fluorescence plate readers, were evaluated in vitro to determine the delivery mechanism.

NOTCH1 [2] = experiment: NOTCH1 cell surface staining by flow cytometry; type: cell-based, human; conditions: T-ALL cells; for NOTCH1 expression on the cell surface: 24 hours
Excerpt: (§1) We previously described that the SERCA inhibitors thapsigargin and cyclopiazonic acid impair NOTCH1 maturation leading to an accumulation of full-length, unprocessed polypeptides in the endoplasmic reticulum/Golgi subcellular compartment. An immediate consequence of SERCA inhibition is a decrement in NOTCH1 protein display on the surface of T-ALL cells. […] To further support the hypothesis that Thap-OH impairs mutant NOTCH1 maturation, we evaluated levels of full-length, transmembrane and activated NOTCH1 (ICN1) by WB. Lysates from T-ALL cell lines treated with 1 μM Thap-OH were immunoblotted with an antibody specific for the cytoplasmic portion of NOTCH1 that recognizes both unprocessed NOTCH1 (FL-N1) (˜270 kDa) and the furin-processed transmembrane subunit (TM-N1) (˜110 kDa).
(§2) The NOTCH loss was measured via flow cytometry. […] The recapitulation of the thapsigargin effect by JQ-FT is hypothesized to be due to the delivery strategy introduced by folate. […] Here cell growth was assessed using the Promega Cell-Titer Glo ATP-based assay (Promega, Madison, Wis., USA). Luminescence was measured using a Fluostar Omega instrument (BMG-labtech, Ortenberg, Germany).

SERCA3 = molecular target: T1, SERCA3 (Homo sapiens, UniProt Q93084); experiment: Competitive pull-down with Thap-Biotin in T-ALL lysates, immunoblot; type: binding; conditions: ALL/SIL lysates, increasing concentrations of free Thap-OH
T1 construct: Lysates from T-ALL cells (ALL/SIL) were co-treated with the indicated concentrations of biotinylated thapsigargin or Thap-OH; endogenous in cells; host or cells: ALL/SIL T-ALL cells (lysate)
T1 sequence (Q93084 whole entry): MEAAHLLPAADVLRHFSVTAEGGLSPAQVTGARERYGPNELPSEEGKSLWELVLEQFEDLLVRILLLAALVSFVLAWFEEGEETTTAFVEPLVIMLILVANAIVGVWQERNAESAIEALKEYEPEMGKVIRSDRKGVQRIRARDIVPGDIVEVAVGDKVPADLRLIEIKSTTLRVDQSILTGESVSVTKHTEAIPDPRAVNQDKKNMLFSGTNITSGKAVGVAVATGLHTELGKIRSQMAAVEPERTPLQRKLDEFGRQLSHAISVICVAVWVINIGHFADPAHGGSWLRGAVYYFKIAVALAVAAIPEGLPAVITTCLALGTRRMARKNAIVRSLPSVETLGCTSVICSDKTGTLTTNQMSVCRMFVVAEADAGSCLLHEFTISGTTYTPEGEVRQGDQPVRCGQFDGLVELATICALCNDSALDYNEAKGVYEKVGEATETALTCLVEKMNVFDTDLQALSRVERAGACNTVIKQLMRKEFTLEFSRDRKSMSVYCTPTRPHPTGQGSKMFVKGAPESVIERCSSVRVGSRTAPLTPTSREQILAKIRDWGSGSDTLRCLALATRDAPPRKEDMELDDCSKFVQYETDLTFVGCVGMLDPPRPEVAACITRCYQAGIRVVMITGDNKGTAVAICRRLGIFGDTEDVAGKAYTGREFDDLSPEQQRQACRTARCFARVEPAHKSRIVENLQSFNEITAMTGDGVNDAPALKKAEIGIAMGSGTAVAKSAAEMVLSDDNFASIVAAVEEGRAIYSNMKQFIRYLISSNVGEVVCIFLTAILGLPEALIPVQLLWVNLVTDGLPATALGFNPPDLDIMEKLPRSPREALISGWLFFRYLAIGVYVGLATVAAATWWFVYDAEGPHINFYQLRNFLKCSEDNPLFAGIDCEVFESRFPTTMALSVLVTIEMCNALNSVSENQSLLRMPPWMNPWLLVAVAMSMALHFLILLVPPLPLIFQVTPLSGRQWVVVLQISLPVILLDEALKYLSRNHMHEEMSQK
Protocol: (§3) Lysates from T-ALL cells (ALL/SIL) were co-treated with the indicated concentrations of biotinylated thapsigargin or Thap-OH for 6 hours and subjected to streptavidin pulldown for 24 hours. The immunoblot was stained with SERCA2 and SERCA3 antibodies. […] Statistical significance for mutated vs WT (*P≤:0.05, **P≤0.01) was determined by one-way ANOVA with Bonferroni's correction for multiple comparison testing. […] NOTCH1 (N1) was detected with an antibody against the C-terminus of NOTCH1 that recognizes the […] NOTCH1 transmembrane subunit (TM) and the unprocessed NOTCH1 precursor (FL). GAPDH was used as loading control. […] Immunoblot was stained with an antibody against FR2. Vinculin was used as a loading control.
(§4) To test the hypothesis that Thap-OH targets SERCA in T-ALL cells, we first performed a competitive pull-down assay in which protein lysates were treated with a novel biotinylated derivative of thapsigargin (Thap-Biotin), alone or in the presence of increasing concentrations of free, competitive Thap-OH.

SERCA2 = molecular target: T2, SERCA2 (Homo sapiens, UniProt P16615); experiment: as above; type: binding; conditions: ALL/SIL lysates, increasing concentrations of free Thap-OH
T2 construct: Lysates from T-ALL cells (ALL/SIL) were co-treated with the indicated concentrations of biotinylated thapsigargin or Thap-OH; endogenous in cells; host or cells: ALL/SIL T-ALL cells (lysate)
T2 sequence (P16615 whole entry): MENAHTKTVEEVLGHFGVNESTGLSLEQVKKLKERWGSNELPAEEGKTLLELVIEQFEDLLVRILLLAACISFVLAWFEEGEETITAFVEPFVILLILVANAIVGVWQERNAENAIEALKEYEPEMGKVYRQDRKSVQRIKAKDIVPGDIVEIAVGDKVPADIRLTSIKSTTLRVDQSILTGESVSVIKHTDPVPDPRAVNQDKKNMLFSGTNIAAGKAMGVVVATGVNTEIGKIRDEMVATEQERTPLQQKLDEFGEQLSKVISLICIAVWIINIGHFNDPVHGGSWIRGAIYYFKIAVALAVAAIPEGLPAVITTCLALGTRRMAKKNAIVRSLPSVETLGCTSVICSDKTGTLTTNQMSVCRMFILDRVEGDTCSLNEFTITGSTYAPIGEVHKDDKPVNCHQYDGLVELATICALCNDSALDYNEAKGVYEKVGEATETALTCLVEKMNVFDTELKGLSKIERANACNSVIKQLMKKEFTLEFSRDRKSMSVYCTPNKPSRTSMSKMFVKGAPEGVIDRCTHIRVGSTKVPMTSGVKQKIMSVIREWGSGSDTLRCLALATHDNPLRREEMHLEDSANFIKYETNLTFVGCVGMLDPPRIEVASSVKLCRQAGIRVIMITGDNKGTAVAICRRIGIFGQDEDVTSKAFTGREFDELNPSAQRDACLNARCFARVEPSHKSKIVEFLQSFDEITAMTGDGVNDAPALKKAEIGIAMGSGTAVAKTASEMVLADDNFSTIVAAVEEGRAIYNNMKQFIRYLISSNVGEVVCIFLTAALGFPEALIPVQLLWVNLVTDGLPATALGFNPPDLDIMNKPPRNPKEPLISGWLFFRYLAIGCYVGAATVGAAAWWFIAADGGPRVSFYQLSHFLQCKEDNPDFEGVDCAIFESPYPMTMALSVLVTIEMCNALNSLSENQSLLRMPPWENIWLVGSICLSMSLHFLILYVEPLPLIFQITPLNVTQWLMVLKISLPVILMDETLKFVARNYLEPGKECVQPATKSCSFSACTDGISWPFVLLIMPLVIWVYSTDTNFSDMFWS
Protocol: as §3, §4

FR2 = FR2 expression by western blot after Thap-OH; type: cell-based, human; conditions: T-ALL cell lines, increasing concentrations of Thap-OH, 24 hours
Protocol: Thapsigargin is a known inducer of the unfolded protein response (UPR). As such, its derivatives may trigger a cellular response that affects the stable expression or trafficking of folate receptors. To exclude that FR2 is a target of UPR, we treated T-ALL cell lines with increasing concentrations of Thap-OH for 24 hours.

T-ALL cell lines [3] = experiment: T-ALL cell viability / growth (ATP content, Cell-Titer Glo); type: cell-based, human; conditions: 72 hours
Protocol: Thus, cell lines carrying NOTCH1 alleles with HD domain, mutations were more sensitive to Thap-OH than cells with WT NOTCH1 alleles.
As a further test of the idea that JQ-FT acts by preventing NOTCH1 activation in a manner similar to thapsigargin, the NOTCH1-dependent T-ALL cell lines RPMI-8402 were transduced with empty MigRI vector or with ICN1, which lies downstream of the γ-secretase cleavage step in Notch activation. Viral supernatant production and retroviral infections were performed as described for MigRI retroviral vectors (Aster, J. C., et al. “Essential roles for ankyrin repeat and transactivation domains in induction of T-cell leukemia by NOTCH1.” Mol. Cell. Biol. 2000; 20:7505-7515). Transduction efficiency for MigRI was monitored by assessing GFP expression with a FACScan flow cytometer (BD, Franklin Lakes, N.J., USA) (Aster et al., Mol. Cell. Biol. 2000; 20:7505-7515). After viral infection, GFP-positive cells were sorted by flow cytometry with a FACSAria II (BD, Franklin Lakes, N.J., USA). […] Therefore, JQ-FT can recapitulate the Thapsigargin effect with the delivery mechanism of folate.
as §2
The effects of JQ-FT in a panel of T-ALL cell lines that contain activating mutations in the HD domain of NOTCH1 and/or protein stabilizing deletions within the PEST degradation domain.

NOTCH1 [4] = experiment: NOTCH1 processing and activation by western blot (FL-N1, TM-N1, ICN1); type: cell-based, human
Excerpt: as §1
Both Folate-Thap (JQ-FT) and Thap-OH were tested in T-ALL cell lines with 24 h treatment. […] Lysates were prepared after treatment with indicated doses of thapsigargin, JQ-FT or Thap-OH for 24 hr. The blot shown was stained with an antibody against the C-terminus of NOTCH1 that recognizes both the furin-processed NOTCH1 transmembrane subunit (TM) and the unprocessed NOTCH1 precursor (FL) (FIG. 2A). GAPDH was used as a loading control. Western blots were stained with antibodies specific for γ-secretase-cleaved NOTCH 1 ([…], Cell Signaling, Beverly, Mass., USA), or the C-terminus of NOTCH1 (SC-6014 (C-20) Santa Cruz Biotechnology, Santa Cruz, Calif., USA). Control stains were carried out with antibodies specific for GAPDH (137179, Santa Cruz Biotechnology). Blots were developed with anti-rabbit-HRP (NA9340V, Amersham, Pittsburgh, Pa., USA) or anti-mouse-HRP (NA9340V or NA9310V, Amersham). Staining was quantified using ImageQuant TI V 7.0 (GE Health Care, Piscataway, N.J., USA).

[5] = LCMS analysis of cell lysate and media; type: in vitro ADME; conditions: only after cells were treated with FT
Protocol: In order to validate the delivery of the Thap-OH, LCMS analysis of the cell lysate and the media was used to detect the presence of both Folate-Thap (FT) and Thap-OH. […] To directly visualize the folate delivery of a small molecule, folic acid derivatives with appended fluorophores were designed. Both Folate-FITC, suitable for flow cytometry studies, and Folate-TMARA, suitable for high-throughput fluorescence plate readers, were evaluated in vitro to determine the delivery mechanism.

CCCCC[C@@H](O)[C@H]1C(=O)O[C@H](C)[C@@H](O)/C=C/C=C/C=C/C=C/C=C(\C)[C@@H](O)C[C@H](O)C[C@H](O)C[C@H](O)C[C@H](O)C[C@H](O)C[C@@H]1O [filipin]
mean percentage reduction of FITC fluorescence signal (T-ALL cell lines [1]; four T-ALL cell lines pretreated with 10 μM filipin, 10 μM FL-FITC): 38.9±2.5 percentage

C/C=C(/C)C(=O)O[C@H]1C(C)=C2[C@H]([C@@H]1OC(=O)CCCCCCC)[C@@](C)(OC(C)=O)C[C@H](OC(=O)CCC)[C@@]1(O)[C@H]2OC(=O)[C@@]1(C)O [thapsigargin, Thapsigargin, reference compound]
NOTCH1 expression on the cell surface (NOTCH1 [2]): concentration-dependent reduction in NOTCH1 expression on the cell surface

C/C=C(/C)C(=O)O[C@H]1C(C)=C2[C@H]([C@@H]1OC(=O)CCCCCCC)[C@@](C)(OC(C)=O)C[C@H](O)[C@@]1(O)[C@H]2OC(=O)[C@@]1(C)O [Thap-OH, 8-O-debutanoylthapsigargin]
competition with biotinylated thapsigargin for SERCA3 (SERCA3): competed off biotinylated thapsigargin
competition with biotinylated thapsigargin for SERCA2 (SERCA2): competed off biotinylated thapsigargin
FR2 expression (FR2): No change in FR2 expression
T-ALL cell viability (T-ALL cell lines [3]; Thap-OH, dose-ranging ATP content assays): decrease in T-ALL cell viability
sensitivity of NOTCH1 mutant versus WT T-ALL cells (T-ALL cell lines [3]; mutated (ALL/SIL, DND41, PF382, RPMI 8402) vs WT (Loucy, MOLT16, SUPT11)): mutant T-ALL cells were more sensitive to the effects of Thap-OH than NOTCH1 WT cells
furin-processed transmembrane NOTCH1 subunit (TM-N1) level (NOTCH1 [4]; T-ALL cell lines with HD mutations, 24 h, Thap-OH at 1 μM): reduced the levels of the furin-processed transmembrane NOTCH1 subunit
ICN1 level (NOTCH1 [4]; T-ALL cell lines, 24 h): decreased ICN1 levels
unprocessed full-length NOTCH1 (FL-N1) level (NOTCH1 [4]; T-ALL cell lines, 24 h): not the unprocessed full-length NOTCH1 precursor
activity on NOTCH1 processing relative to JQ-FT (NOTCH1 [4]; T-ALL cell lines, 24 h treatment): much lower activity
NOTCH1 maturation in NOTCH1 WT cell lines (NOTCH1 [4]; WT cell lines (Loucy, MOLT16), concentrations tested): no effect on NOTCH1 maturation in the WT cell lines
detection of released Thap-OH in cell lysate [5]: detected in cell lysate
effect on cell surface NOTCH1 compared with thapsigargin (NOTCH1 [2]): less potent than the natural product; also recorded: reduced effect
NOTCH1 expression on the cell surface (NOTCH1 [2]): concentration-dependent reduction in NOTCH1 expression on the cell surface; also recorded: show NOTCH loss

Nc1nc2ncc(CNc3ccc(C(=O)N[C@@H](CCC(=O)O)C(=O)O)cc3)nc2c(=O)[nH]1 [folic acid]
competition of free folic acid with folate derivatives for uptake (T-ALL cell lines [1]; free folic acid added to T-ALL culture): competed away the folate derivatives; also recorded: competes with folate-FITC
